Holding throughout (assay type): physicochemical
Series [1] is described as follows: Relationships among Forms of R(+)-lansoprazole under various conditions. From the text: The relationships among Forms of R(+)-lansoprazole were studied under various conditions.
The nature of series [2]: Solubility of crystal forms as a suspension of powder in water (HPLC and XRPD). The method, then:
The solubilities of Forms I, II, III, IV and VI of (R)-lansoprazole obtained in the above-mentioned Reference Example 1 and Examples were tested as a suspension of power in water at 25° C. for 5 days. The solid samples of each form were tested as-is by HPLC and XRPD without particle size determination. […] The extent of chemical degradation as a function of time was similar for all forms.

Series [3] in a line: Interconversion slurries of mixtures of forms in aqueous saturated solutions (XRPD). To be noted: slurry in water, ambient, additional time beyond 5 days. As to the method:
Mixtures of Forms I, II, III, IV and VI were slurried in aqueous saturated solutions at ambient temperature and up to 40° C. A mixture of Form II and Pattern V material was obtained when the mixture of forms was slurried at ambient temperature for 5 days, despite the absence of Pattern V material as starting material.

The text below walks through data of patent US20100286400A1, “CRYSTALLINE SOLVATED FORMS OF (R)-2-[[[3-METHYL-4-(2,2,2-TRIFLUOROETHOXY)-2-PYRIDINYL]METHYL]SULFINYL]-1H-BENZIMIDAZOLE” (TAKEDA PHARMACEUTICAL COMPANY LIMITED, priority 2007, published 2010).

As to `Cc1c(OCC(F)(F)F)ccnc1C[S@@+]([O-])c1nc2ccccc2[nH]1` [Form II, (R)-2-[[[3-methyl-4-(2,2,2-trifluoroethoxy)-2-pyridinyl]methyl]sulfinyl]-1H-benzimidazole], the “order of stability in transfer (crystal form conversion)” value in series [1] (according to Experimental Example 2 and 3, most stable first) is “Form II, Form VI, Form III, Form IV, and Form V, in that order”. For the same molecule, the appearance on heating entry in series [1] (vial purged with nitrogen, heated to 93° C. in an oil bath) is reported as “Sample had turned brown in up to 45 seconds, removed”. Also, the “chemical degradation over time” value in series [2] (suspension in water at 25° C. for 5 days) was “chemically degraded over time”.

Turning to `Cc1c(OCC(F)(F)F)ccnc1C[S@@+]([O-])c1nc2ccccc2[nH]1` [Pattern V, (R)-2-[[[3-methyl-4-(2,2,2-trifluoroethoxy)-2-pyridinyl]methyl]sulfinyl]-1H-benzimidazole], in series [3], the “form obtained on additional slurry time” value is “converted to Form II”.

In the case of `Cc1c(OCC(F)(F)F)ccnc1C[S@@+]([O-])c1nc2ccccc2[nH]1` [Form I, (R)-2-[[[3-methyl-4-(2,2,2-trifluoroethoxy)-2-pyridinyl]methyl]sulfinyl]-1H-benzimidazole], the “XRPD of residual solids after the solubility study” value in series [2] (after 5 days as a suspension in water at 25° C.) was “a mixture consisting of Form I (major component) and Form II”.
